IC50 data for 16 compounds are collected here from patent US20160130259A1, “SUBSTITUTED BENZOFURAN COMPOUNDS AND METHODS OF USE THEREOF FOR THE TREATMENT OF VIRAL DISEASES” (priority 2013, published 2016).

One test relates to HCV replicon genotype 1b. The test can be described thus: HCV replicon assay, genotype 1b (cell ELISA for NS3/4A). To be noted: Hepatitis C virus, 96 h, read-out: 1b IC50 (nM). It counts as cell-based. Here is the method: (§1) Measurement of inhibition by compounds was performed using the HCV replicon system. Several different replicons encoding different HCV genotypes or mutations were used. In addition, potency measurements were made using different formats of the replicon assay, including different ways of measurements and different plating formats. See Jan M. Vrolijk et al., A replicons-based bioassay for the measurement of interferons in patients with chronic hepatitis C, 110 J. Virological Methods 201 (2003); Steven S. Carroll et al., Inhibition of Hepatitis C Virus RNA Replication by 2′-Modified Nucleoside Analogs, 278(14) J. Biological Chemistry 11979 (2003). However, the underlying principles are common to all of these determinations, and are outlined below.
(§2) Stable neomycin phosphotransferase encoding replicons-harboring cell lines were used, so all cell lines were maintained under G418 selection prior to the assay. Potency was determined using a cell ELISA assay with an antibody to the replicons encoded NS3/4a protease. See Caterina Trozzi et al., In Vitro Selection and Characterization of Hepatitis C Virus Serine Protease Variants Resistant to an Active-Site Peptide Inhibitor, 77(6) J. Virol. 3669 (2003). To initiate an assay, replicon cells were plated in the presence of a dilution series of test compound in the absence of G418. Typically, the assays were performed in a 96-well plate formate for manual operation, or a 384-well plate format for automated assay. Replicon cells and compound were incubated for 96 hours. At the end of the assay, cells were washed free of media and compound, and the cells were then lysed. RNA was quantified indirectly through detection of replicon-encoded NS3/4A protein levels, through an ELISA-based assay with an antibody specific for NS3/4A. IC50 determinations were calculated as a percentage of a DMSO control by fitting the data to a four-parameter fit function and the data obtained is provided in the table below.
(§3) Data for selected compounds of the present invention was obtained for genotypes 1a and 1b using this method and is provided in the table below: […]

For another test, the system named is HCV replicon genotype 1a. The test can be described thus: HCV replicon assay, genotype 1a (cell ELISA for NS3/4A). It counts as cell-based. To be noted: Hepatitis C virus, 96 h, read-out: 1a IC50 (nM). Here is the method: as §1, §2, §3

Turning to `CNC(=O)c1c(-c2ccc(F)cc2)oc2cc(N(C)S(C)(=O)=O)c(-c3cc(-c4cc5c(F)cccc5n4C)c(=O)n(C)n3)cc12` [Compound 16, 5-(5-(4-fluoro-1-methyl-1H-indol-2-yl)-1-methyl-6-oxo-1,6-dihydropyridazin-3-yl)-2-(4-fluorophenyl)-N-methyl-6-(N-methylmethylsulfonamido)benzofuran-3-carboxamide], the IC50 with HCV replicon genotype 1b and with HCV replicon genotype 1a was 1.38 nM throughout.

For the compound `CNC(=O)c1c(-c2ccc(F)cc2)oc2cc(N(C)S(C)(=O)=O)c(-c3cc(-c4cc5c(C#N)cccc5n4C)c(=O)n(C)n3)cc12` [Compound 17, 5-(5-(4-cyano-1-methyl-1H-indol-2-yl)-1-methyl-6-oxo-1,6-dihydropyridazin-3-yl)-2-(4-fluorophenyl)-N-methyl-6-(N-methylmethylsulfonamido) benzofuran-3-carboxamide], the IC50 in the test on HCV replicon genotype 1b is 4.26 nM; with HCV replicon genotype 1a, 2.29 nM.

For the compound `CNC(=O)c1c(-c2ccc(F)cc2)oc2cc(N(C)S(C)(=O)=O)c(-c3cc(-c4cc5c(C#N)cccc5n4CCOC)c(=O)n(C)n3)cc12` [Compound 18, 5-(5-(4-cyano-1-(2-methoxyethyl)-1H-indol-2-yl)-1-methyl-6-oxo-1,6-dihydropyridazin-3-yl)-2-(4-fluorophenyl)-N-methyl-6-(N-methylmethylsulfonamido)benzofuran-3-carboxamide], the figures for the IC50 with HCV replicon genotype 1b and in the test on HCV replicon genotype 1a were 5.02 nM and 3.15 nM, respectively.

Take `CNC(=O)c1c(-c2ccc(F)cc2)oc2cc(N(C)S(C)(=O)=O)c(-c3cc(-c4cc5c(F)cccc5[nH]4)nn(C)c3=O)cc12` [Compound 19, 5-(6-(4-fluoro-1H-indol-2-yl)-2-methyl-3-oxo-2,3-dihydropyridazin-4-yl)-2-(4-fluorophenyl)-N-methyl-6-(N-methylmethylsulfonamido)benzofuran-3-carboxamide]: the 50% inhibitory concentration (IC50) with HCV replicon genotype 1b is 3.07 nM; with HCV replicon genotype 1a it was 2.48 nM.

On to `CNC(=O)c1c(-c2ccc(F)cc2)oc2cc(N(C)S(C)(=O)=O)c(-c3cn(C)c(=O)c(-c4cc5c(F)cccc5[nH]4)n3)cc12` [Compound 20, 5-(6-(4-fluoro-1H-indol-2-yl)-4-methyl-5-oxo-4,5-dihydropyrazin-2-yl)-2-(4-fluorophenyl)-N-methyl-6-(N-methylmethylsulfonamido)benzofuran-3-carboxamide], for which the figures for the IC50 with HCV replicon genotype 1b and in the test on HCV replicon genotype 1a were 5.91 nM and 2.9 nM, respectively.

With `CNC(=O)c1c(-c2ccc(F)cc2)oc2cc(N(C)S(C)(=O)=O)c(-c3cn(C)c(=O)c(-c4cc5c(F)cccc5n4C)n3)cc12` [Compound 21, 5-(6-(4-fluoro-1-methyl-1H-indol-2-yl)-4-methyl-5-oxo-4,5-dihydropyrazin-2-yl)-2-(4-fluorophenyl)-N-methyl-6-(N-methylmethylsulfonamido)benzofuran-3-carboxamide], the half-maximal inhibitory concentration (IC50) in the test on HCV replicon genotype 1b is 5.99 nM; in the test on HCV replicon genotype 1a it was 13.7 nM.

In the case of `CNC(=O)c1c(-c2ccc(F)cc2)oc2ccc(-n3cc(C(=O)N[C@H](CO)c4ccc(F)cc4)ncc3=O)cc12` [Compound 22, (S)-N-(1-(4-fluorophenyl)-2-hydroxyethyl)-4-(2-(4-fluorophenyl)-3-(methylcarbamoyl)benzofuran-5-yl)-5-oxo-4,5-dihydropyrazine-2-carboxamide], the IC50 in the test on HCV replicon genotype 1b was 193 nM; in the test with HCV replicon genotype 1a, 354 nM.

Take `CNC(=O)c1c(-c2ccc(F)cc2)oc2ccc(-n3cc(C(=O)NCc4ccc(F)cn4)ncc3=O)cc12` [Compound 23, 4-(2-(4-fluorophenyl)-3-(methylcarbamoyl)benzofuran-5-yl)-N-((5-fluoropyridin-2-yl)methyl)-5-oxo-4,5-dihydropyrazine-2-carboxamide]: the half-maximal inhibitory concentration (IC50) in the test with HCV replicon genotype 1b stood at 213 nM; in the test on HCV replicon genotype 1a, 492 nM.

For `CNC(=O)c1c(-c2ccc(F)cc2)oc2ccc(-n3cc(C(=O)NC4(c5ccc(F)cc5)CC4)ncc3=O)cc12` [Compound 24, 4-(2-(4-fluorophenyl)-3-(methylcarbamoyl)benzofuran-5-yl)-N-(1-(4-fluorophenyl)cyclopropyl)-5-oxo-4,5-dihydropyrdzine-2-carboxamide], the results for the IC50 in the test on HCV replicon genotype 1b and in the test with HCV replicon genotype 1a were 35.5 nM and 80.8 nM, respectively.

Consider `CNC(=O)c1c(-c2ccc(F)cc2)oc2ccc(-n3cc(C(=O)NC4(c5ccc6cnccc6n5)CC4)ncc3=O)cc12` [Compound 25, N-(1-(1,6-naphthyridin-2-yl)cyclopropyl)-4-(2-(4-fluorophenyl)-3-(methylcarbamoyl)benzofuran-5-yl)-5-oxo-4,5-dihydropyrazine-2-carboxamide], for which the values for the concentration for half-maximal inhibition (IC50) with HCV replicon genotype 1b and with HCV replicon genotype 1a were 38.3 nM and 72.5 nM, respectively.

On to `CNC(=O)c1c(-c2ccc(F)cc2)oc2ccc(-n3cc(C(=O)NC4(c5ccccc5)CC4)ncc3=O)cc12` [Compound 26, 4-(2-(4-fluorophenyl)-3-(methylcarbamoyl)benzofuran-5-yl)-5-oxo-N-(1-phenylcyclopropyl)-4,5-dihydropyrazine-2-carboxamide], for which the IC50 with HCV replicon genotype 1b stood at 29.7 nM; in the test on HCV replicon genotype 1a, 129 nM.

With `CNC(=O)c1c(-c2ccc(F)cc2)oc2cc(N(C)S(C)(=O)=O)c(-c3cc(C(=O)N[C@H](C)c4ccc(F)cc4)c(=O)n(C)c3)cc12` [Compound 27, (R)-5-(2-(4-fluorophenyl)-3-(methylcarbamoyl)-6-(N-methylmethylsulfonamido)benzoturan-5-yl)-N-(1-(4-fluorophenyl)ethyl)-1-methyl-2-oxo-1,2-dihydropyridine-3-carboxamide], the IC50 in the test on HCV replicon genotype 1b was determined as 4.47 nM; in the test on HCV replicon genotype 1a, 6.87 nM.

With `CNC(=O)c1c(-c2ccc(F)cc2)oc2cc(N(C)S(C)(=O)=O)c(-c3cnc(=O)n(-c4ccc5ccccc5c4)c3)cc12` [Compound 28, 2-(4-fluorophenyl)-N-methyl-6-(N-methylmethylsulfonamido)-5-(1-(naphthalen-2-yl)-2-oxo-1,2-dihydropyrimidin-5-yl)benzofuran-3-carboxamide], the values for the IC50 with HCV replicon genotype 1b and in the test on HCV replicon genotype 1a were 18 nM and 116 nM, respectively.

In the case of `CNC(=O)c1c(-c2ccc(F)cc2)oc2cc(N(C)S(C)(=O)=O)c(-c3ccc(=O)n(-c4ccc(F)cc4)c3)cc12` [Compound 29, 2-(4-fluorophenyl)-5-(1-(4-fluorophenyl)-6-oxo-1,6-dihydropyridin-3-yl)-N-methyl-6-(N-methylmethylsulfonamido) benzofuran-3-carboxamide], the IC50 in the test with HCV replicon genotype 1b was determined as 31.8 nM; with HCV replicon genotype 1a, 110 nM.

Take `CNC(=O)c1c(-c2ccc(F)cc2)oc2cc(N(C)S(C)(=O)=O)c(-c3cc4n(c(=O)c3)CCn3c-4cc4c(F)cccc43)cc12` [Compound 30, 5-(12-fluoro-4-oxo-6,7-dihydro-4H-pyrido[2′,1′:3,4]pyrazino[1,2-a]indol-2-yl)-2-(4-fluorophenyl)-N-methyl-6-(N-methylmethylsulfonamido)benzofuran-3-carboxamide]: the IC50 in the test on HCV replicon genotype 1b was 19 nM; with HCV replicon genotype 1a it was 3.52 nM.

As for `CNC(=O)c1c(-c2ccc(F)cc2)oc2cc(N(C)S(C)(=O)=O)c(-c3cc4n(c(=O)n3)CCn3c-4cc4c(F)cccc43)cc12` [Compound 31, 5-(12-fluoro-4-oxo-6,7-dihydro-4H-pyrimido[6′,1′:3,4]pyrazino[1,2-a]indol-2-yl)-2-(4-fluorophenyl)-N-methyl-6-(N-methylmethylsulfonamido)benzofuran-3-carboxamide], the IC50 in the test on HCV replicon genotype 1b stood at 6.95 nM; in the test on HCV replicon genotype 1a, 3.48 nM.
